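Cultured in 96-well plates, cells were exposed to test compound for 48 hours across five concentrations. TGI marks complete inhibition of growth.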

Holding throughout (experiment): NCI tumour cell line growth inhibition, 48 h
The subject of test [1] is 786-0 renal.
Test [2] concerns CAKI-1 renal.
For test [3], the system named is DU-145 prostate.
Test [4] deals with EKVX NSCLC.
For test [5], the system named is HCT-116 colon.
Test [6] relates to HOP-62 NSCLC.
In test [7] the test system is KM12 colon.
In test [8] the test system is MDA-N.
Test [9] deals with NCI-H226 lung.
For test [10], the system named is NCI-H522 lung.
The test system of test [11] is OVCAR-4 ovarian.
In test [12] the test system is RXF 393 renal.
The subject of test [13] is SF-268 CNS.
Test [14] concerns SF-295 CNS.
For test [15], the system named is SK-MEL-2 melanoma.
Test [16] deals with SK-MEL-28 melanoma.
For test [17], the system named is SW-620 colon.
Test [18] concerns UO-31 renal.
Test [19] relates to A498 renal.
In test [20] the test system is MALME-3M melanoma.

For the compound `C=C(Nc1nc2ccc(C)cc2s1)C(=O)C(CC)C(=O)C(CC)CC1C(=O)NC(=O)NC1=O` (stereo not drawn), the TGI in test [1], in [2], in [3], in [4], in test [5] and in test [6] was above 100 µM each time. Also, the TGI in [7], in test [8], in test [9], in test [10], in [11] and in [12] was above 100 µM in each case. Besides, the TGI in test [13], in [14], in test [15], in test [16], in [17] and in test [18] was above 100 µM throughout.

For `Cc1ccc(NC(=O)CCc2nnc(N)o2)cc1`, the TGI in test [1], in [19], in [2], in test [4], in test [5] and in [6] was above 100 µM throughout. Also, the TGI in [7], in test [20], in [9], in test [10], in test [11] and in test [12] was above 100 µM in each case. In addition, the TGI in [13], in test [14], in [15], in test [16], in [17] and in test [18] was above 100 µM in each case.

On to `O=[N+]([O-])c1ccc(-c2cnc3ccccn23)cc1`, for which the TGI in test [1], in test [19], in test [2], in test [4], in [5] and in [6] was above 100 µM throughout. For the same compound, the TGI in test [7], in [20], in test [9], in test [10], in test [11] and in test [12] was above 100 µM throughout. Further, the TGI in test [13], in [14], in test [15], in [16], in test [17] and in test [18] was above 100 µM each time.

For `CSc1ccsc1-c1sc(-c2cc(SC)c(-c3sc(-c4cc(SC)c(-c5sccc5SC)s4)cc3SC)s2)cc1SC`, the TGI is 29.1 µM in test [1]; above 100 µM in test [19]; 34 µM in [2]; above 100 µM in test [3]; above 100 µM in [4]; above 100 µM in [5]. Besides, the TGI in [6] is above 100 µM; in test [7] it was above 100 µM; in test [20] it was 81.7 µM; in [10] it was above 100 µM; in [11], above 100 µM; in test [12], above 100 µM. Further, the TGI was above 100 µM in [13]; above 100 µM in [14]; above 100 µM in test [15]; above 100 µM in [16]; 69.7 µM in test [17].

Turning to `Cc1ccc(Cl)c2c(=O)c3ccc(N)cc3sc12`, the TGI in test [1] is above 100 µM; in [19], 36.8 µM; in test [2], above 100 µM; in test [3] it was above 100 µM; in test [4] it was 52.8 µM; in test [5], 35.1 µM. For the same compound, the TGI in test [6] is 52.8 µM; in [7], 33.4 µM; in test [8] it was above 100 µM; in test [9], 48.4 µM; in test [12], 59.3 µM; in test [13], above 100 µM. Besides, the TGI in test [14] came to 31.8 µM; in [15] it was 44.6 µM; in test [18], 41.2 µM.

`CC1=C(CO)C2=C(C)C3(CC3)[C@@](C)(O)C(=O)C2=C1`: the TGI in test [1] was 0.474 µM; in test [19], 0.507 µM; in test [2], 0.76 µM; in [4], 0.535 µM; in [5], 0.504 µM; in [6] it was 0.4 µM. For the same compound, the TGI in test [7] came to 2.81 µM; in [20] it was 0.494 µM; in test [8], 3.25 µM; in [9] it was 0.528 µM; in [10], 0.682 µM; in test [11], 0.703 µM. The TGI in test [12] is 0.159 µM; in test [13] it was 2.57 µM; in test [15], 0.367 µM; in [16], 1.44 µM; in [17] it was above 30.4 µM.

As for `Cn1c2ccccc2c2ncc3[nH]c4ccccc4c3c21`, the TGI in test [1] is above 100 µM; in test [19], 36.7 µM; in test [2], 68.8 µM; in test [4], 65.6 µM; in test [5], 26 µM; in test [6], above 100 µM. In addition, the TGI was 33.9 µM in test [7]; above 100 µM in [20]; 51.8 µM in [9]; 33.2 µM in test [10]; 32.1 µM in test [11]; 30.6 µM in test [12]. For the same compound, the TGI is 61.8 µM in test [13]; 47.9 µM in test [14]; above 100 µM in [15]; 31.7 µM in test [16]; 71 µM in test [17]; 26.9 µM in [18].

For the compound `CNCCCn1c2ccccc2c2c3c(c(-c4ccsc4)cc21)C(=O)NC3=O`, the TGI was 1.48 µM in [1]; below 0.0254 µM in test [19]; 2.44 µM in test [2]; 1.89 µM in test [3]; 3.75 µM in [4]; 2.79 µM in test [5]. For the same compound, the TGI in [6] stood at 2.24 µM; in test [9], 23.6 µM; in test [11] it was 3.22 µM; in test [12], 1.25 µM; in test [13] it was 4 µM; in [14] it was 1.71 µM. The TGI in test [16] is 3.36 µM; in [17], 2.92 µM; in [18] it was 0.218 µM.

For the compound `CC(C)(C)OC/C=C(/CO)[C@@H]1C=C[C@H](O)C1`, the TGI in test [1], in [19], in test [2], in test [4], in [5] and in test [6] was above 100 µM each time. The TGI in test [7], in [20], in test [8], in test [9], in [11] and in [13] was above 100 µM in each case. In addition, the TGI in test [14], in [15], in [16], in test [17] and in [18] was above 100 µM throughout.

Turning to `O=C1c2ccccc2C(=O)c2c1nc1ccccc1c2-c1cncc(-c2c3c(nc4ccccc24)C(=O)c2ccccc2C3=O)c1`, the TGI in [1] is 67.4 µM; in test [19] it was 26.7 µM; in test [2], 71.1 µM; in [3], 16.1 µM; in test [4], above 100 µM; in test [5] it was 24.7 µM. For the same compound, the TGI in [6] is above 100 µM; in [7], above 61.6 µM; in test [20] it was 24.1 µM; in [9] it was 43.6 µM; in test [10], 19.6 µM; in test [11], above 100 µM. Further, the TGI in [12] is above 100 µM; in test [13], above 62.8 µM; in test [14], 22.8 µM; in test [15] it was 44.6 µM; in test [16] it was 28.7 µM; in test [17] it was 37.8 µM. The compound further came in with a TGI in test [18] of 31.8 µM.

As for `Cc1cc(C(F)(F)F)cc(-n2nc(NS(=O)(=O)c3cc(C)c(Cl)cc3S)nc2N)n1`, the TGI is above 100 µM in [1]; 56.1 µM in test [19]; above 100 µM in test [2]; above 100 µM in [4]; above 100 µM in test [5]; above 100 µM in test [6]. The TGI in test [7] is above 100 µM; in test [20], above 100 µM; in test [8], above 100 µM; in test [9], above 100 µM; in test [10], 91.5 µM; in test [11], above 100 µM. Also, the TGI in test [12], in [13], in [14], in [15], in test [16] and in [17] was above 100 µM each time.

Regarding `CC(C)[Si]1(C(C)C)OCC2OC3(CO)C(Oc4nc(=O)ccn43)C2O[Si](C(C)C)(C(C)C)O1` (stereo not drawn), the TGI is 28.9 µM in test [1]; 29.4 µM in test [2]; 27.7 µM in test [3]; 35 µM in test [4]; 24.7 µM in [5]; 29.2 µM in test [6]. The TGI in test [7] worked out at 30.8 µM; in [9] it was 31 µM; in test [11] it was 26.7 µM; in test [12], 18.3 µM; in [13] it was 35.6 µM; in test [14] it was 29.6 µM. In addition, the TGI in test [15] turned out to be 30.5 µM; in [16], 29.3 µM; in [17], 34.7 µM; in test [18], 27.2 µM.

As to `CC(C)=CC1CC(=[N+]=[N-])C(=O)C1(C)C` (stereo not drawn), the TGI in test [1], in test [19], in test [2], in test [4], in [5] and in test [6] was above 100 µM each time. In addition, the TGI in test [7] was above 100 µM; in test [20], above 100 µM; in test [9], above 100 µM; in test [10], above 100 µM; in test [11], above 100 µM; in test [12] it was above 31.6 µM. Besides, the TGI in test [13], in test [14], in test [15], in [16], in test [17] and in test [18] was above 100 µM in each case.

For the compound `O=C(CSc1c2ccccc2nc2ccccc12)Nc1ccccc1-c1ccccc1NC(=O)CSc1c2ccccc2nc2ccccc12`, the TGI was 69.4 µM in test [1]; above 93.4 µM in test [19]; above 73.8 µM in test [2]; above 76.6 µM in [4]; above 100 µM in [5]; above 63.3 µM in test [6]. Also, the TGI was above 62 µM in test [7]; above 91.3 µM in test [20]; above 80.5 µM in [9]; 37.2 µM in test [10]; above 40.3 µM in test [11]; 52 µM in [12]. Moreover, the TGI in test [13] was above 69.4 µM; in test [14] it was above 81.2 µM; in test [15] it was 45.3 µM; in [16], 52 µM; in test [17] it was above 100 µM; in test [18] it was above 100 µM.

As for `Nc1ccn([C@H]2CO[C@@H](CO)[C@@H]2O)c(=O)n1`, the TGI in [1], in test [19], in test [2], in test [3], in test [4] and in test [5] was above 100 µM throughout. The TGI in [6], in test [7], in test [8], in test [9], in test [11] and in [12] was above 100 µM in each case. In addition, the TGI in test [13], in [14], in test [15], in test [16], in test [17] and in test [18] was above 100 µM throughout.

As for `C=CCC1(CN(C)C)CC/C(=C\c2ccc(Cl)cc2)C1=O` (stereo not drawn), the TGI in [1] is above 100 µM; in [19], above 100 µM; in [2] it was above 100 µM; in test [4], above 100 µM; in [5], above 94.5 µM; in test [6], above 100 µM. Further, the TGI in test [7] was above 78.5 µM; in test [20], above 100 µM; in test [9] it was above 100 µM; in test [10] it was 41.9 µM; in test [11], above 94.5 µM; in test [12] it was above 72.9 µM. For the same compound, the TGI is above 100 µM in test [13]; above 85.3 µM in test [14]; above 100 µM in [15]; above 100 µM in test [16]; above 76.2 µM in test [17]; above 100 µM in test [18].

(Values after PubChem BioAssay (NCI).)
